Laboratory results published in article PMC9005681, “Use of AD Informer Set compounds to explore validity of novel targets in Alzheimer's disease pathology” (Alzheimer's & Dementia : Translational Research & Clinical …, 2022).
Values joined by “and” are separate entries in the source; they are usually repeats but may differ in a detail not shown here. Equal values may be shown once.

What was measured:
Experiment in all cases: PDSP GPCR panel primary binding assays at 10 μM
Conditions in all cases: primary assay
[1] = target: T1, cloned human or rodent CNS receptors, channels, and transporters (PDSP panel) (Homo sapiens, UniProt P21728)
T1 construct: expressed in transfected cells
Protocol: (§1) GPCR panel: Screening against the receptors within the PDSP panel offers an assessment of off-target pharmacological activity at cloned human or rodent CNS receptors, channels, and transporters that could confound CNS-related phenotypes. A total of 46–47 primary binding assays were run in quadruplicate on these compounds at 10 μM, with follow-up secondary binding assays in 11-point dose-response in triplicate for select compounds versus select receptors. Secondary binding assays were executed for all receptors where test compound displaced an average of >50% of radio-labeled standard ligand. As an exception, no secondary assays were carried out for H3, PBR, or GABAA. […]

[2] = target: T2, cloned human or rodent CNS receptors, channels, and transporters (PDSP panel) (Homo sapiens, UniProt P23975)
T2 construct: expressed in transfected cells
Protocol: as §1

[3] = target: T3, cloned human or rodent CNS receptors, channels, and transporters (PDSP panel) (Homo sapiens, UniProt P11229)
T3 construct: expressed in transfected cells
T3 sequence (P11229 1-460): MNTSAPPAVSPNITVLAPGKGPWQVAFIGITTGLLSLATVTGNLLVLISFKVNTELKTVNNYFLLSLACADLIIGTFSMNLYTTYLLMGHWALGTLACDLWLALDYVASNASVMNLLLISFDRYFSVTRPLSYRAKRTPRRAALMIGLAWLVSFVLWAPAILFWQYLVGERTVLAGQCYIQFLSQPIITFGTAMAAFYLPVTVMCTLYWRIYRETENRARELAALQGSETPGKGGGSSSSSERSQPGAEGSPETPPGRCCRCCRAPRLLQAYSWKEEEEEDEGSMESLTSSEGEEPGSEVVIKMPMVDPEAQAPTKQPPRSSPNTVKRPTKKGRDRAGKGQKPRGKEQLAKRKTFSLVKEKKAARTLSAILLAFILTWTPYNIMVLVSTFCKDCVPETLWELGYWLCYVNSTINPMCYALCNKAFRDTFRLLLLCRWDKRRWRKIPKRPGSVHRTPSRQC
Protocol: as §1

[4] = target: T4, cloned human or rodent CNS receptors, channels, and transporters (PDSP panel) (Homo sapiens, UniProt P47898)
T4 construct: expressed in transfected cells
Protocol: as §1

[5] = target: T5, cloned human or rodent CNS receptors, channels, and transporters (PDSP panel) (Homo sapiens, UniProt P35368)
T5 construct: expressed in transfected cells
T5 sequence (P35368 1-520): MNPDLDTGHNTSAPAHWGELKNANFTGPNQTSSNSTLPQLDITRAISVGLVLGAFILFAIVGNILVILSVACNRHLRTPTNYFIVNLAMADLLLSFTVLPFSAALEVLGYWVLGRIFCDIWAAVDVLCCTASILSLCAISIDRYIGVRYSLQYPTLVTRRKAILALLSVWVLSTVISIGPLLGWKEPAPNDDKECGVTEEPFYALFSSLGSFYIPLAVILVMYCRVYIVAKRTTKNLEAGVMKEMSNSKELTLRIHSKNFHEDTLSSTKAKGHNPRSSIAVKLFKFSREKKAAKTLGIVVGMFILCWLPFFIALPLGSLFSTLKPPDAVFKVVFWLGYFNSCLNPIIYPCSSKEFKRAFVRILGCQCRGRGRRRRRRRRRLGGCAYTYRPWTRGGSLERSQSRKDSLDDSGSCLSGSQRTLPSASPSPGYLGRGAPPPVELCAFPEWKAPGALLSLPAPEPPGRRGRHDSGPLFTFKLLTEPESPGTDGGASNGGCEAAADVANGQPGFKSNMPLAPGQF
Protocol: as §1

[6] = target: T6, cloned human or rodent CNS receptors, channels, and transporters (PDSP panel) (Homo sapiens, UniProt P28223)
T6 construct: expressed in transfected cells
Protocol: as §1

[7] = target: T7, cloned human or rodent CNS receptors, channels, and transporters (PDSP panel) (Homo sapiens, UniProt P25100)
T7 construct: expressed in transfected cells
T7 sequence (P25100 1-572): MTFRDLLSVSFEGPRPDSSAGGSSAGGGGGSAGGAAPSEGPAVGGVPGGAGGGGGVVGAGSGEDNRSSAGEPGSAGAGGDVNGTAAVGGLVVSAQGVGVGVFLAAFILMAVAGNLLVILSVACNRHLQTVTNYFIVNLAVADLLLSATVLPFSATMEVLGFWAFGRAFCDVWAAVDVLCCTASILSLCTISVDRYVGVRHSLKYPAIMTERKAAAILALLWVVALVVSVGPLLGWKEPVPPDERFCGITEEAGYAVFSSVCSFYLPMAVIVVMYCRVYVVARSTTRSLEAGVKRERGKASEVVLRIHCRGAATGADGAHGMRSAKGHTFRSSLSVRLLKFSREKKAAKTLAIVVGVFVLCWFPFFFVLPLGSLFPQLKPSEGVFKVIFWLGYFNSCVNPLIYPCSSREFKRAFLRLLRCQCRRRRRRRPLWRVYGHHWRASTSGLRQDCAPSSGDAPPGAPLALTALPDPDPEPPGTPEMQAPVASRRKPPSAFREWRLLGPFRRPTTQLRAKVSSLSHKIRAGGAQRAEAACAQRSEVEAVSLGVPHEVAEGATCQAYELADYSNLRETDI
Protocol: as §1

T6 sequence (P28223 whole entry): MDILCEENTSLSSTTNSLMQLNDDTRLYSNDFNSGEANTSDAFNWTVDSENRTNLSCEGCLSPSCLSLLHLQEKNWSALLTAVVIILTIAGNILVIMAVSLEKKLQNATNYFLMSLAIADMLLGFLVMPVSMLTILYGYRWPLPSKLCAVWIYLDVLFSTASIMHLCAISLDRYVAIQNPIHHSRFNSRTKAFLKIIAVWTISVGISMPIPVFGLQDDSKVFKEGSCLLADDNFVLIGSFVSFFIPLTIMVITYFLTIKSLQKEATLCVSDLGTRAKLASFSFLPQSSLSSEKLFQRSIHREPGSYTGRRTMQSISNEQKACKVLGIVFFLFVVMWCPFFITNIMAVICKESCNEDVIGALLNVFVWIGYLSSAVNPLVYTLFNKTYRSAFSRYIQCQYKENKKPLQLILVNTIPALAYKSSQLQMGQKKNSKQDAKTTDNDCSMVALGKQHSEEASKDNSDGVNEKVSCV
T2 sequence (P23975 whole entry): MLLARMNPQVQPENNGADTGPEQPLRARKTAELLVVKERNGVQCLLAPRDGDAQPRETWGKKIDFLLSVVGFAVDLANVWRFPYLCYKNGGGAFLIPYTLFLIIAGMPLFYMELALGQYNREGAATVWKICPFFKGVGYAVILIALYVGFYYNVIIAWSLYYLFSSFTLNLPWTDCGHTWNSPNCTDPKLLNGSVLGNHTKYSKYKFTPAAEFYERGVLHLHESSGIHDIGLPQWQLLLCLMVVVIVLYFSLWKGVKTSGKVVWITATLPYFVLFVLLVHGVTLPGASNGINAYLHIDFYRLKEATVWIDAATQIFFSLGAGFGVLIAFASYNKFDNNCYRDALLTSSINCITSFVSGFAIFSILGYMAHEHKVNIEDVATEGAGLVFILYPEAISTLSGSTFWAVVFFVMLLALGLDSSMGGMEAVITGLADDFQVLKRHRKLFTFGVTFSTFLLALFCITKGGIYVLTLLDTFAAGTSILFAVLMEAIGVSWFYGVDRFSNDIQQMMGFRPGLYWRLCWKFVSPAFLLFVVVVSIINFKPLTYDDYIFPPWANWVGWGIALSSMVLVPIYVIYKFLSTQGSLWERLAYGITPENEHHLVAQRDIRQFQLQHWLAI
T4 sequence (P47898 whole entry): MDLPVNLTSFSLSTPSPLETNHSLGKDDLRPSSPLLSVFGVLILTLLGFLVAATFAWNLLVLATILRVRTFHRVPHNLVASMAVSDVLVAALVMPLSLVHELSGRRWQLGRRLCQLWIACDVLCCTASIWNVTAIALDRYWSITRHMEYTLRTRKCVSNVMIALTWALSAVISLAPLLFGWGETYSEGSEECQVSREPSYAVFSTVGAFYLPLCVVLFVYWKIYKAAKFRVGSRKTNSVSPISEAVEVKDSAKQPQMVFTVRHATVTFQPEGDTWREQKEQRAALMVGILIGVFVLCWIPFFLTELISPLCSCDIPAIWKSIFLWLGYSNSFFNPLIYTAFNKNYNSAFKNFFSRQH
T1 sequence (P21728 whole entry): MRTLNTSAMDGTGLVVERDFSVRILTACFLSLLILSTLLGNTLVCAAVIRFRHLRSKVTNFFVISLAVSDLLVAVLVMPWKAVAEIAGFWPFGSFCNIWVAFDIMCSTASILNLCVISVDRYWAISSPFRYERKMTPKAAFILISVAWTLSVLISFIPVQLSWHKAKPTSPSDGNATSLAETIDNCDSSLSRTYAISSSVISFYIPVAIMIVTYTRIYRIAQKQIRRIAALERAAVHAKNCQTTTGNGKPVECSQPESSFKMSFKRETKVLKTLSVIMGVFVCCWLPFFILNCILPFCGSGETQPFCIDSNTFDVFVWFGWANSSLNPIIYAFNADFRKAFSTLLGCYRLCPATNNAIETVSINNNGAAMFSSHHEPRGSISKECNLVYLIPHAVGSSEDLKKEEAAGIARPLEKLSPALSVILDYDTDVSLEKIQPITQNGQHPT

Q: For `CCCCNc1ncc2c(-c3ccc(CN4CCN(C)CC4)cc3)cn([C@H]3CC[C@H](O)CC3)c2n1` [UNC2025C, UNC2025], which “Inhibition 1” value ([1]; Receptor D1, 10 μM) is on record?
A: The value was 18.86%.

Q: What about the “Inhibition 2” value ([1]; Receptor D1, 10 μM) of the same compound?
A: Its value is -8.82%.

Q: What about the “Inhibition 3” value ([1]; Receptor D1, 10 μM) of the same compound?
A: Its value is 17.73%.

Q: What about the “Inhibition 4” value ([1]; Receptor D1, 10 μM) of the same compound?
A: Its value is 11.41%.

Q: What about the Mean % ([1]; Receptor D1, 10 μM, mean of Inhibition 1-4) of the same compound?
A: Its Mean % is 9.8%.

Q: What about the “Inhibition 1” value ([2]; Receptor NET, 10 μM) of the same compound?
A: Its value is 67.05% and 40.06%.

Q: And the “Inhibition 2” value ([2]; Receptor NET, 10 μM)?
A: Its value is 52.92% and 42.04%.

Q: What about the “Inhibition 3” value ([2]; Receptor NET, 10 μM) of the same compound?
A: Its value is 47% and 40.28%.

Q: And the “Inhibition 4” value ([2]; Receptor NET, 10 μM)?
A: The value was 46.05% and 54.77%.

Q: What about the Mean % ([2]; Receptor NET, 10 μM, mean of Inhibition 1-4) of the same compound?
A: The Mean % was 53.26% and 44.29%.

Q: What about the “Inhibition 1” value ([3]; Receptor M1, 10 μM) of the same compound?
A: Its value is 58.8%.

Q: What about the “Inhibition 2” value ([3]; Receptor M1, 10 μM) of the same compound?
A: Its value is 42.24%.

Q: What about the “Inhibition 3” value ([3]; Receptor M1, 10 μM) of the same compound?
A: The value was 30.2%.

Q: And the “Inhibition 4” value ([3]; Receptor M1, 10 μM)?
A: Its value is 36.41%.

Q: What about the Mean % ([3]; Receptor M1, 10 μM, mean of Inhibition 1-4) of the same compound?
A: The Mean % was 41.91%.

Q: What about the “Inhibition 1” value ([4]; Receptor 5-HT5A, 10 μM) of the same compound?
A: The value was 24.59%.

Q: And the “Inhibition 2” value ([4]; Receptor 5-HT5A, 10 μM)?
A: Its value is 14.3%.

Q: And the “Inhibition 3” value ([4]; Receptor 5-HT5A, 10 μM)?
A: Its value is 9.95%.

Q: What about the “Inhibition 4” value ([4]; Receptor 5-HT5A, 10 μM) of the same compound?
A: Its value is 29.74%.

Q: What about the Mean % ([4]; Receptor 5-HT5A, 10 μM, mean of Inhibition 1-4) of the same compound?
A: Its Mean % is 19.65%.

Q: What about the “Inhibition 1” value ([5]; Receptor Alpha1B, 10 μM) of the same compound?
A: The value was 15.21%.

Q: And the “Inhibition 2” value ([5]; Receptor Alpha1B, 10 μM)?
A: The value was -0.72%.

Q: What about the “Inhibition 3” value ([5]; Receptor Alpha1B, 10 μM) of the same compound?
A: Its value is -5.53%.

Q: And the “Inhibition 4” value ([5]; Receptor Alpha1B, 10 μM)?
A: Its value is -1.63%.

Q: And the Mean % ([5]; Receptor Alpha1B, 10 μM, mean of Inhibition 1-4)?
A: Its Mean % is 1.83%.

Q: And the “Inhibition 1” value ([6]; Receptor 5-HT2A, 10 μM)?
A: The value was 90.4%.

Q: What about the “Inhibition 2” value ([6]; Receptor 5-HT2A, 10 μM) of the same compound?
A: Its value is 85.14%.

Q: What about the “Inhibition 3” value ([6]; Receptor 5-HT2A, 10 μM) of the same compound?
A: The value was 80.37%.

Q: What about the “Inhibition 4” value ([6]; Receptor 5-HT2A, 10 μM) of the same compound?
A: Its value is 89.25%.

Q: And the Mean % ([6]; Receptor 5-HT2A, 10 μM, mean of Inhibition 1-4)?
A: Its Mean % is 86.29%.

Q: What about the “Inhibition 1” value ([7]; Receptor Alpha1D, 10 μM) of the same compound?
A: The value was 50.98%.

Q: And the “Inhibition 2” value ([7]; Receptor Alpha1D, 10 μM)?
A: The value was 57.37%.

Q: What about the “Inhibition 3” value ([7]; Receptor Alpha1D, 10 μM) of the same compound?
A: Its value is 48.7%.

Q: And the “Inhibition 4” value ([7]; Receptor Alpha1D, 10 μM)?
A: The value was 44.3%.

Q: And the Mean % ([7]; Receptor Alpha1D, 10 μM, mean of Inhibition 1-4)?
A: The Mean % was 50.34%.

Q: `O=C(NC1CC1)C(=O)C(Cc1ccccc1)NC(=O)[C@H]1CCC(=O)N1Cc1ccccc1` (stereo partly drawn) [UNC10302676A, ABT-957 (Alicapistat)] was tested. Which Mean % ([1]; D1, mean inhibition) did it give?
A: The Mean % was 0%.

Q: What about the “Inhibition 1” value ([1]; D1, replicate 1) of the same compound?
A: Its value is 13.52%.

Q: And the “Inhibition 2” value ([1]; D1, replicate 2)?
A: The value was -11.9%.

Q: And the “Inhibition 3” value ([1]; D1, replicate 3)?
A: Its value is -21.45%.

Q: And the “Inhibition 4” value ([1]; D1, replicate 4)?
A: Its value is 19.83%.

Q: What about the “Inhibition 1” value ([2]; NET, replicate 1) of the same compound?
A: Its value is 22.45% and -0.84%.

Q: And the “Inhibition 2” value ([2]; NET, replicate 2)?
A: The value was -3.8% and -22.08%.

Q: And the “Inhibition 3” value ([2]; NET, replicate 3)?
A: Its value is -17.85% and -14.66%.

Q: And the “Inhibition 4” value ([2]; NET, replicate 4)?
A: Its value is -11.29% and -22.96%.

Q: And the Mean % ([3]; M1, mean inhibition)?
A: Its Mean % is -5.83%.

Q: What about the “Inhibition 1” value ([3]; M1, replicate 1) of the same compound?
A: The value was 12.89%.

Q: And the “Inhibition 2” value ([3]; M1, replicate 2)?
A: Its value is -15.33%.

Q: What about the “Inhibition 3” value ([3]; M1, replicate 3) of the same compound?
A: The value was -17.78%.

Q: What about the “Inhibition 4” value ([3]; M1, replicate 4) of the same compound?
A: The value was -3.1%.

Q: And the Mean % ([4]; 5-HT5A, mean inhibition)?
A: The Mean % was -3.42%.

Q: What about the “Inhibition 1” value ([4]; 5-HT5A, replicate 1) of the same compound?
A: Its value is 4.48%.

Q: And the “Inhibition 2” value ([4]; 5-HT5A, replicate 2)?
A: Its value is -8.24%.

Q: And the “Inhibition 3” value ([4]; 5-HT5A, replicate 3)?
A: Its value is -6.55%.

Q: And the “Inhibition 4” value ([4]; 5-HT5A, replicate 4)?
A: Its value is -3.37%.

Q: And the Mean % ([5]; Alpha1B, mean inhibition)?
A: The Mean % was -8.47%.

Q: And the “Inhibition 1” value ([5]; Alpha1B, replicate 1)?
A: Its value is -8.91%.

Q: What about the “Inhibition 2” value ([5]; Alpha1B, replicate 2) of the same compound?
A: Its value is -13.01%.

Q: What about the “Inhibition 3” value ([5]; Alpha1B, replicate 3) of the same compound?
A: Its value is -14.75%.

Q: What about the “Inhibition 4” value ([5]; Alpha1B, replicate 4) of the same compound?
A: The value was 2.78%.

Q: What about the Mean % ([6]; 5-HT2A, mean inhibition) of the same compound?
A: The Mean % was 1.79%.

Q: And the “Inhibition 1” value ([6]; 5-HT2A, replicate 1)?
A: Its value is 6.22%.

Q: And the “Inhibition 2” value ([6]; 5-HT2A, replicate 2)?
A: Its value is 7.05%.

Q: What about the “Inhibition 3” value ([6]; 5-HT2A, replicate 3) of the same compound?
A: Its value is 5.57%.

Q: And the “Inhibition 4” value ([6]; 5-HT2A, replicate 4)?
A: The value was -11.7%.

Q: And the Mean % ([7]; Alpha1D, mean inhibition)?
A: The Mean % was -2.1%.

Q: What about the “Inhibition 1” value ([7]; Alpha1D, replicate 1) of the same compound?
A: Its value is 4.8%.

Q: And the “Inhibition 2” value ([7]; Alpha1D, replicate 2)?
A: The value was -9.7%.

Q: What about the “Inhibition 3” value ([7]; Alpha1D, replicate 3) of the same compound?
A: Its value is -4.72%.

Q: What about the “Inhibition 4” value ([7]; Alpha1D, replicate 4) of the same compound?
A: Its value is 1.24%.
